Experimental data reported in US11000033B2, “Ketone or oxime compound, and herbicide” (NISSAN CHEMICAL CORPORATION, priority 2014, dated 2021).

How the values were obtained:
Type in all cases: in vivo
[1] = tested on: transplanted rice plant; experiment: Test Example 1: effect on crop, application before weed generation in submerged conditions (symbol a); settings: application herbicide amount 320 g/ha
Summary of the method: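 Rice at 2.5 leaf stage transplanted into submerged soil (4 cm depth) sown with three weed species; herbicide applied before weed emergence.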

[2] = tested on: Scirpus juncoides; experiment: Test Example 2: herbicidal activity, application during weed generation in submerged conditions (symbol B); settings: Table 23; application herbicide amount 320 g/ha; grade 0-5 by criteria of Test Example 1
Summary of the method: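 Alluvial soil in pots was flooded to a 4 cm water depth and sown with a mix of the three weed species, then grown in a greenhouse at 25° C. to 30° C. At the one- to two-leaf stage, an emulsifiable formulation diluted in water to a set dose was applied to the water surface. Effects were scored visually 3 weeks later.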

[3] = tested on: Echinochloa crus-galli var. crus-galli; experiment: Test Example 4: herbicidal effect by soil treatment (symbol H)
Summary of the method: (§1)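 Seeds were sown in sterilized diluvial soil, covered with about 1.5 cm of soil, and the soil surface was sprayed with a water-diluted emulsion of the compound at a predetermined rate. Plants grew in a greenhouse at 25° C. to 30° C.; effects were scored visually 3 weeks after application.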

[4] = tested on: Apera spica-venti; experiment: Test Example 4: herbicidal effect by soil treatment (symbol L)
Summary of the method: as §1

[5] = tested on: Abutilon theophrasti; experiment: Test Example 4: herbicidal effect by soil treatment (symbol M)
Summary of the method: as §1

[6] = tested on: Stellaria media; experiment: Test Example 4: herbicidal effect by soil treatment (symbol P)
Summary of the method: as §1

[7] = tested on: corn; experiment: Test Example 4: effect on crop by soil treatment (symbol c); settings: for c: corn, effect grade on crop: 320 g/ha; for c: corn, effect on crop grade: application herbicide amount 320 g/ha
Summary of the method: (§2)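 Soil-treatment setup: crop and weed seeds were spot-sown into sterilized diluvial soil, then buried beneath approximately 1.5 cm of it, and the boxes were housed in a 25–30° C. greenhouse.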

[8] = tested on: rice; experiment: Test Example 4: effect on crop by soil treatment (symbol b); settings: for b: directly sowed rice plant, effect grade on crop: 320 g/ha; for b: directly sowed rice plant, effect on crop grade: application herbicide amount 320 g/ha
Summary of the method: as §2

[9] = tested on: Echinochloa crus-galli var. crus-galli; experiment: Test Example 5: herbicidal effect by foliage application, plastic box (symbol H); settings: 320 g/ha, 3 weeks after application
Summary of the method: (§3)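 Greenhouse foliar test: seedlings at 14 days, grown 25° C. to 30° C. in sterilized diluvial soil; compound applied as an aqueous dilution of an emulsion; response read 3 weeks after spraying.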

[10] = tested on: Alopecurus myosuroides; experiment: Test Example 5: herbicidal effect by foliage application, plastic box (symbol J); settings: 320 g/ha, 3 weeks after application
Summary of the method: as §3

[11] = tested on: corn; experiment: Test Example 5: effect on crop by foliage application, plastic box (symbol c); settings: 320 g/ha, 3 weeks after application
Summary of the method: (§4)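 Seeds were sown in spots in sterilized diluvial soil held in a plastic box 21 cm × 13 cm × 7 cm deep, covered with about 1.5 cm of soil, and grown in a greenhouse at 25° C. to 30° C.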

[12] = tested on: soybean; experiment: Test Example 5: effect on crop by foliage application, plastic box (symbol d); settings: 320 g/ha, 3 weeks after application
Summary of the method: as §4

[13] = tested on: beet; experiment: Test Example 5: effect on crop by foliage application, plastic box (symbol f); settings: 320 g/ha, 3 weeks after application
Summary of the method: as §4

[14] = tested on: Cyperus difformis; experiment: Test Example 3: herbicidal effect by foliage application, Wagner pot (symbol E); settings: application herbicide amount 320 g/ha
Summary of the method: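 Weeds and rice were sown in alluvial soil under 0.1–0.5 cm of standing water and grown for 14 days in a 25–30 °C greenhouse. An emulsion of the compound, diluted in water to a set dose, was sprayed evenly onto the foliage. Effect was scored against fixed criteria 3 weeks after treatment.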

[15] = application herbicide amount 320 g/ha

Structure (SMILES)	Effect grade on crop, a: transplanted rice plant [1]	Herbicidal effect grade, B: Scirpus juncoides [2]	H: Echinochloa crus-galli var. crus-galli, herbicidal effect grade ([3]; 320 g/ha)	L: Apera spica-venti, herbicidal effect grade ([4]; 320 g/ha)	M: Abutilon theophrasti, herbicidal effect grade ([5]; 320 g/ha)	P: Stellaria media, herbicidal effect grade ([6]; 320 g/ha)	c: corn, effect grade on crop [7]	b: directly sowed rice plant, effect grade on crop [8]	H: Echinochloa crus-galli var. crus-galli, herbicidal effect (criteria 0-5) [9]	J: Alopecurus myosuroides, herbicidal effect (criteria 0-5) [10]	c: corn, effect on crop (criteria 0-5) [11]	d: soybean, effect on crop (criteria 0-5) [12]	f: beet, effect on crop (criteria 0-5) [13]	herbicidal effect on E, grade 0-5 [14]	H: Echinochloa crus-galli var. crus-galli, herbicidal effect grade [3, 15]	L: Apera spica-venti, herbicidal effect grade [4, 15]	M: Abutilon theophrasti, herbicidal effect grade [5, 15]	P: Stellaria media, herbicidal effect grade [6, 15]	c: corn, effect on crop grade [7]	b: directly sowed rice plant, effect on crop grade [8]	other results
COCCOC(=O)OC1=C(c2c(C)cc(C)cc2C)C(=O)C(CC(C)=NOC)C1 (centres unmarked) [1-147]	5 (Herbicidal ratio of 90% or more (almost completely withered))	5 (Herbicidal ratio of 90% or more (almost completely withered))	5 (Herbicidal ratio of 90% or more (almost completely withered))	5 (Herbicidal ratio of 90% or more (almost completely withered))	5 (Herbicidal ratio of 90% or more (almost completely withered))	2 (Herbicidal ratio of 20% or higher and lower than 40%)	5 (Herbicidal ratio of 90% or more (almost completely withered))	5 (Herbicidal ratio of 90% or more (almost completely withered))	5 (Herbicidal ratio of 90% or more (almost completely withered))	5 (Herbicidal ratio of 90% or more (almost completely withered))	5 (Herbicidal ratio of 90% or more (almost completely withered))	3 (Herbicidal ratio of 40% or higher and lower than 70%)	3 (Herbicidal ratio of 40% or higher and lower than 70%)								
CON=C(C)CC1CC(OC(=O)OCc2ccccc2)=C(c2c(C)cc(C)cc2C)C1=O (centres unmarked) [1-145]	5 (Herbicidal ratio of 90% or more (almost completely withered))	5 (Herbicidal ratio of 90% or more (almost completely withered))	5 (Herbicidal ratio of 90% or more (almost completely withered))	5 (Herbicidal ratio of 90% or more (almost completely withered))	4 (Herbicidal ratio of 70% or higher and lower than 90%)	3 (Herbicidal ratio of 40% or higher and lower than 70%)	5 (Herbicidal ratio of 90% or more (almost completely withered))	5 (Herbicidal ratio of 90% or more (almost completely withered))	5 (Herbicidal ratio of 90% or more (almost completely withered))	5 (Herbicidal ratio of 90% or more (almost completely withered))	5 (Herbicidal ratio of 90% or more (almost completely withered))	2 (Herbicidal ratio of 20% or higher and lower than 40%)	2 (Herbicidal ratio of 20% or higher and lower than 40%)								
CON=C(C)CC1CC(O)=C(c2c(C)cc(C(C)=O)cc2C)C1=O (centres unmarked) [6-026]	3 (Herbicidal ratio of 40% or higher and lower than 70%)													5 (Herbicidal ratio of 90% or more (almost completely withered))	1 (Herbicidal ratio of 5% or higher and lower than 20%)	0 (Herbicidal ratio of 5% or lower (almost no effect))	0 (Herbicidal ratio of 5% or lower (almost no effect))	0 (Herbicidal ratio of 5% or lower (almost no effect))	0 (Herbicidal ratio of 5% or lower (almost no effect))	5 (Herbicidal ratio of 90% or more (almost completely withered))	H: Echinochloa crus-galli var. crus-galli, herbicidal effect grade [9]: 5 (Herbicidal ratio of 90% or more (almost completely withered)); J: Alopecurus myosuroides, herbicidal effect grade [10]: 5 (Herbicidal ratio of 90% or more (almost completely withered)); c: corn, effect on crop grade [11]: 5 (Herbicidal ratio of 90% or more (almost completely withered)); d: soybean, effect on crop grade [12]: 0 (Herbicidal ratio of 5% or lower (almost no effect)); f: beet, effect on crop grade [13]: 0 (Herbicidal ratio of 5% or lower (almost no effect))
CON=C(C)CC1CC(O)=C(c2c(C)cc(C(=O)OC)cc2C)C1=O (centres unmarked) [6-023]	4 (Herbicidal ratio of 70% or higher and lower than 90%)													4 (Herbicidal ratio of 70% or higher and lower than 90%)	0 (Herbicidal ratio of 5% or lower (almost no effect))	4 (Herbicidal ratio of 70% or higher and lower than 90%)	0 (Herbicidal ratio of 5% or lower (almost no effect))	0 (Herbicidal ratio of 5% or lower (almost no effect))	1 (Herbicidal ratio of 5% or higher and lower than 20%)	5 (Herbicidal ratio of 90% or more (almost completely withered))	H: Echinochloa crus-galli var. crus-galli, herbicidal effect grade [9]: 5 (Herbicidal ratio of 90% or more (almost completely withered)); J: Alopecurus myosuroides, herbicidal effect grade [10]: 5 (Herbicidal ratio of 90% or more (almost completely withered)); c: corn, effect on crop grade [11]: 3 (Herbicidal ratio of 40% or higher and lower than 70%); d: soybean, effect on crop grade [12]: 0 (Herbicidal ratio of 5% or lower (almost no effect))
CCOC(=O)C(C(=O)CC1CC1)C1CC(O)=C(c2c(C)cc(C)cc2C)C1=O (centres unmarked) [2-025]	2 (Herbicidal ratio of 20% or higher and lower than 40%)													0 (Herbicidal ratio of 5% or lower (almost no effect))	4 (Herbicidal ratio of 70% or higher and lower than 90%)	0 (Herbicidal ratio of 5% or lower (almost no effect))	0 (Herbicidal ratio of 5% or lower (almost no effect))	0 (Herbicidal ratio of 5% or lower (almost no effect))	0 (Herbicidal ratio of 5% or lower (almost no effect))	5 (Herbicidal ratio of 90% or more (almost completely withered))	H: Echinochloa crus-galli var. crus-galli, herbicidal effect grade [9]: 4 (Herbicidal ratio of 70% or higher and lower than 90%); J: Alopecurus myosuroides, herbicidal effect grade [10]: 4 (Herbicidal ratio of 70% or higher and lower than 90%); c: corn, effect on crop grade [11]: 1 (Herbicidal ratio of 5% or higher and lower than 20%); d: soybean, effect on crop grade [12]: 0 (Herbicidal ratio of 5% or lower (almost no effect)); f: beet, effect on crop grade [13]: 0 (Herbicidal ratio of 5% or lower (almost no effect))
CON=C(C)CC1CC(OS(=O)(=O)C2CC2)=C(c2c(C)cc(C)cc2C)C1=O (centres unmarked) [1-143]	5 (Herbicidal ratio of 90% or more (almost completely withered))	4 (Herbicidal ratio of 70% or higher and lower than 90%)	0 (Herbicidal ratio of 5% or lower (almost no effect))	5 (Herbicidal ratio of 90% or more (almost completely withered))	0 (Herbicidal ratio of 5% or lower (almost no effect))	0 (Herbicidal ratio of 5% or lower (almost no effect))	0 (Herbicidal ratio of 5% or lower (almost no effect))	0 (Herbicidal ratio of 5% or lower (almost no effect))	5 (Herbicidal ratio of 90% or more (almost completely withered))	5 (Herbicidal ratio of 90% or more (almost completely withered))	3 (Herbicidal ratio of 40% or higher and lower than 70%)	1 (Herbicidal ratio of 5% or higher and lower than 20%)	0 (Herbicidal ratio of 5% or lower (almost no effect))								
